# Like-named read-outs stand apart in the source and are kept apart here.
# Legend:
# [1] = tested on: neuroblastoma N1E-115 cells; experiment: Growth and morphological differentiation of mouse neuroblastoma N1E-115 cells; settings: for range of effective concentrations that inhibited cell proliferation and induced morphological differentiation / effects on cell appearance: N1E-115 cells; for range of effective concentrations that inhibited cell proliferation and induced morphological differentiation: below range no noticeable effect, above range cytotoxic; for effects on cell appearance: morphology; for most effective concentration for the cells tested: summary, cells tested in the present invention
# Method: A,B: Untreated cells, 3 (A) and 8 (B) days after subculture. C,D: Cells grown for 3 (C) and 8 (D) days with 12.8 μM Debromoshermilamine. E,F: Cells grown for 7 days with Isosegoline A (39 μM) and Norsegoline (16.3 μM), respectively.
# A,B: Untreated cells 3 (A) and 6 (B) days after subculture. C,D: Cells grown for 3 (C) and 6 (D) days with 50 μM forskolin. E,F: Cells grown for 3 (E) and 6 (F) days with 39 μM Segoline A. G,H: Cells grown for 3 (G) and 6 (H) days with 0.14 μM Eilatin.
# Cells were grown for six days in the absence of drugs (A), or in the presence of: 10 μM 4-methylpyrido[2,3,4-kl]acridine (B), 4 μM pyrido[2,3,4-kl]acridine (C), 0.08 μM Eilatin (D), 75 μM forskolin (E).
# The inventors chose the neuroblastoma N1E-115 cells because these tumor-derived cells can be induced to express characteristic neuronal properties by a variety of procedures see Spector, "Electrophysiology of clonal nerve cell lines. In: Excitable Cells in Tissue Culture", Nelson et al. eds., Plenum, New York 247-277 (1981) and can serve as a useful experimental system in which to explore the effects of the Eudistoma alkaloids on the biological properties of both cancer cells and neuronal cells.
# The N1E-115 cells were exposed to various concentrations of the six (6) natural products shown in FIG. 1, and of the two synthetic pyridoacridines shown in Scheme III of FIG. 2. […] A,B: Untreated cells, 3 (A) and 8 (B) days after subculture. C,D: Cells grown for 3 (C) and (8) days with 12.8 μM Debromoshermilamine. E,F: Cells grown for 7 days with Isosegoline A (39 μM) and Norsegoline (16.3 μM), respectively. FIG. 5 illustrates the appearance of N1E-115 cells 6 days after replating in the absence (A) and in the presence of 10 μM 4-methylpyrido[2,3,4-kl]acridine (B), or 4 μM pyrido[2,3,4-kl]acridine.
# [2] = tested on: normal hamster fibroblast NIL8 cell line; experiment: Growth and morphology of normal NIL8 fibroblast cells; format: cell-based; settings: 6 days, single application
# [3] = tested on: pyruvate kinase; experiment: Pyruvate kinase activity in cultured rat hepatoma FAO cells; format: cell-based
# Method: FIG. 11 is a graph showing the effects of the Eudistoma alkaloids on pyruvate kinase activity in cultured rat hepatoma FAO cells. Enzyme activity v/Vmax was assayed as described in Example IV in partially purified extracts from cells incubated for 1 h in the absence ( ) or presence of 100 μM CPT-cAMP (.cndot.) and 26 μM segoline A ( ) as a function of substrate concentrations (phosphoenolpyruvate, PEP).
# 1. Activity of pyruvate kinase--a key glycolytic enzyme whose activity is inhibited by cAMP-dependent phosphorylation.
# FIG. 11 is a graph showing the effects of the Eudistoma alkaloids on pyruvate kinase activity in cultured rat hepatoma FAO cells. Enzyme activity v/Vmax was assayed in partially purified extracts from cells incubated for 1 h in the absence (squares) or presence of 100 μM 8-(4-chlorophenylthio) cyclic AMP (CPT-cAMP)-CPT-cAMP (circles) and 26 μM Segoline A (triangles) as a function of substrate concentrations (phosphoenolpyruvate, PEP).
# [4] = tested on: NIL8-HSV cells
# Method: A-D Cells grown for 6 days in the absence of drugs (A), or in the presence of 75 μM forskolin (B), 13 μM Segoline B (C) or 0.21 μM Eilatin (D). E and F show the appearance of the Segoline B- and Eilatin-treated cells, 7 days after removal of the toxins.
# A: F-actin staining in control cells. B: F-actin staining in a cell treated for 4 days with 13 μM Segoline B.
# Cells were grown for 6 days in the absence of drugs (A), or in the presence of 10 μM 4-methylpyrido[2,3,4-kl]acridine (B), 4 μM pyrido[2,3,4-kl]acridine (C), 0.08 μM eilatin (D), or 75 μM forskolin (E).
# As reviewed by Willingham, Int. Rev. […] Transformed fibroblasts which display altered growth patterns and aberrant morphologies respond to cAMP elevation by restoration of many normal aspects of growth and morphology, a phenomenon known as "cAMP-mediated reverse transformation" as described by Lockwood et al., J. Cell. Biochem., 33, 237-255 (1987).
# A-D show cells grown for 6 days in the absence of drugs (A), or in the presence of 75 μM forskolin (B), 13 μM Segoline B (C) or 0.21 μM Eilatin (D). E and F show the appearance of the Segoline B- and Eilatin-treated cells, 7 days after removal of the toxins.
# A: F-actin staining in control cells.
# [5] = tested on: normal hamster fibroblast NIL8 cell line; experiment: Growth and morphology of normal NIL8 fibroblast cells; format: cell-based; settings: 25 μM forskolin, 5 days, single application
# Method: Cells were grown for 5 days in the absence of drugs (A), and in the presence of 25 μM forskolin (B), 1.4 μM Eilatin (C), or 12.8 μM Debromoshermilamine (D). […]
# As illustrated, a single application of 1.4 μM Eilatin or 12.8 μM Debromoshermilamine to NIL8 cells produced effects which are strikingly similar to those obtained by chronically treating time cells with agents that elevate or mimic cAMP. […] This predilection towards cancer cells is a very desirable property in developing potential drugs for the treatment of cancer.
smiles,measurement,setting,value
"COc1cc2c3c4c(ccnc14)-c1ccccc1N3C(C)C1(C)C(=O)NC(=O)C21 (single isomer, unassigned) [Isosegoline A]",range of effective concentrations that inhibited cell proliferation and induced morphological differentiation,[1],12-52 μM
same,effects on cell appearance,[1],flattened cell bodies as well as numerous long neurites
same,most effective concentration for the cells tested,[1],12 to 52 µM
"Cc1ccc2c3c(ccnc13)-c1ccccc1N2 [4-methylpyrido[2,3,4-kl]acridine]",effect on NIL8 cells,"[2]; 10 μM 4-methylpyrido[2,3,4-kl]acridine",effects which were similar to those produced by the natural alkaloids
same,range of effective concentrations that inhibited cell proliferation and induced morphological differentiation,[1],7.5-12.5 μM
same,effects on cell appearance,[1],most neurites were short
same,most effective concentration for the cells tested,[1],7.5 to 12.5 µM
COC(=O)c1cc(OC)c2nccc3c2c1Nc1ccccc1-3 [Norsegoline],Km,"[3]; concentration of alkaloid not given, control 0.14, read-out: Km for the substrate phosphoenolpyruvate (PEP)",400 µM
same,inhibition of pyruvate kinase activity,[3]; submaximal substrate concentrations,inhibit pyruvate kinase activity
same,rise in the Km for substrate (phosphoenolpyruvate),[3]; versus control,ca. 3 fold
same,range of effective concentrations that inhibited cell proliferation and induced morphological differentiation,[1],8-40 μM
same,effects on cell appearance,[1],relatively small cell bodies and numerous long neurites
same,most effective concentration for the cells tested,[1],8 to 40 µM
COc1cc2c3c4c(ccnc14)-c1ccccc1N3C1(C)C(=O)NC(=O)C2C1C (stereo not shown) [Segoline B],reversal of the effects of transformation,"[4]; 13 μM Segoline B, one application",permanently reverse the effects of transformation
same,effects on cell shape and actin organization,"[4]; 13 μM Segoline B, FIGS. 8C, 9B",became large and flat and showed the typical network of stress fibers
same,growth and morphology after drug removal,[4]; 7 days after removal of 13 μM Segoline B,maintained their reduced growth and flattened morphology
"C=C[C@@]1(C)CC(=O)[C@]2(O)[C@@]3(C)[C@@H](O)CCC(C)(C)[C@@H]3[C@H](O)[C@H](OC(C)=O)[C@@]2(C)O1 [forskolin, reference compound]",effect on NIL8 cells,[5],the cells reached the high saturation densities typical of untreated cultures
same,long-term effect on transformed phenotype,"[4]; 75 μM forskolin, 6 days (FIG. 8B)",reverted to the transformed phenotype
same,reversal of the effects of transformation,"[4]; forskolin 50-100 μM, single application, data not shown",transiently reverse the effects of transformation
same,effect on cell division and morphological differentiation,"[1]; 50 μM forskolin, 3 days, single application",inhibited cell division and induced morphological differentiation
same,long-term effect on cell division,"[1]; 50 μM forskolin, 6 days, single application",became confluent like the control cells
"c1ccc2c(c1)Nc1cccc3nccc-2c13 [pyrido[2,3,4-kl]acridine]",effect on NIL8 cells,"[2]; 4 μM pyrido[2,3,4-kl]acridine",effects which were similar to those produced by the natural alkaloids
same,range of effective concentrations that inhibited cell proliferation and induced morphological differentiation,[1],2-5 μM
same,effects on cell appearance,[1],flattened cell bodies as well as numerous long neurites
same,most effective concentration for the cells tested,[1],2 to 5 µM

# From patent US5432172A, “Biological applications of alkaloids derived from the tunicate Eudistoma sp” (The Research Foundation of State University of New York, priority 1993, dated 1995)
